Records with an inconclusive call do not appear. The source made the active and inactive calls. No rule for the calls is given here.

The subject of the assay is Mycobacterium tuberculosis non-replicating, growth inhibition. As to the kind of experiment: growth inhibition of non-replicating M. tuberculosis (AID 488890).
With `CCOC(=O)c1cc(COc2cc(Cl)cc(Cl)c2)on1`, the IC50 was 0.59 µM.

In the case of `Cc1ccc2cc3c(nc2c1)OCC3`, the half-maximal inhibitory concentration (IC50) is 6.8 µM.

As for `CCc1ccc(N2C(=O)CC(N3CCC(C(=O)OC)CC3)C2=O)cc1` (stereo unspecified), the IC50 is 34.6 µM (inactive).

As for `CC(C)OC(=O)c1cc(C(=O)c2cc(Cl)ccc2O)coc1=N`, the 50% inhibitory concentration (IC50) is 4.66 µM.

For the compound `O=C(N/N=C/C=C/c1ccccc1[N+](=O)[O-])c1ccncc1`, the IC50 was 1.23 µM.

For the compound `CN1CCC(O)(c2ccc(Cl)cc2)C(C(=O)c2ccc(Cl)cc2)C1` (stereo unspecified), the IC50 is 1.97 µM.

For `O=C(c1ccc([N+](=O)[O-])o1)N1CCN(Cc2ccccc2)CC1`, the IC50 was 2.81 µM.

As for `COc1cc(OC)nc(-n2ncc(Br)c(Br)c2=O)n1`, the IC50 was 6.07 µM.

For the compound `Cc1cc(C)cc(NC(=O)COC(=O)CC2CCCC2)c1`, the IC50 was 21.5 µM (inactive).

For the compound `CCCOc1ccc(CCC(=O)N/N=C/c2ccc([N+](=O)[O-])o2)cc1`, the half-maximal inhibitory concentration (IC50) is 4.22 µM.

For the compound `CC1(C)OC(c2ccccc2)=C/C(=C\C=N\NC(=O)c2ccncc2)O1`, the concentration for half-maximal inhibition (IC50) was 1.75 µM.

Turning to `Cc1cc(C)cc(OC(=O)CCN2C(=O)c3ccccc3C2=O)c1`, the IC50 is 19.4 µM (inactive).

For the compound `Cc1ccn2c(NC3CCCC3)c(-c3ccccn3)nc2c1`, the IC50 is 12 µM (inactive).

Take `CCCCCOc1ccc(Br)cc1/C(C)=N/NC1=NCCN1`: the IC50 was 7.59 µM.

Regarding `O=C(COc1ccc(Nc2ccccc2)cc1)OCC(=O)N1CCCCC1`, the concentration for half-maximal inhibition (IC50) is 6.24 µM.

Consider `Cc1cnc(NC(=O)c2ccccn2)s1`, for which the IC50 was 8.53 µM.

For `CCCc1cc(NCc2ccccn2)n2nc(C)c(-c3ccccc3)c2n1`, the IC50 is 2.23 µM.

`O=C(COc1ccc(Cl)cc1)OCC(=O)N1CCCc2ccccc21`: the IC50 is 12.9 µM (inactive).

For `COc1cccc(F)c1C(C[N+](=O)[O-])c1c(N)n(C)c(=O)n(C)c1=O` (stereo unspecified), the IC50 was 7.59 µM.

Regarding `Cc1ccc(OCCCCc2c(C)n[nH]c2C)cc1`, the IC50 is 8.01 µM.

Consider `CCC(C)(C)NC(=O)c1ccc(Br)o1`, for which the IC50 is 18.6 µM (inactive).

With `O=C(Cc1ccccc1)N/N=C/c1ccc([N+](=O)[O-])s1`, the IC50 is 14 µM (inactive).

Regarding `Cc1cccc(NC(=O)COc2ccc(Br)cc2)n1`, the IC50 was 7.08 µM.

As to `Cc1ccc(OCCCCn2ccnc2)c([N+](=O)[O-])c1`, the IC50 is 28.5 µM (inactive).

As to `Cc1csc(=Nc2cccnc2)n1CC1CCCCC1`, the IC50 was 17.5 µM (inactive).

Turning to `CC(/C=C/c1cccc([N+](=O)[O-])c1)=N\NC(=O)c1ccncc1`, the IC50 is 1.2 µM.

Consider `O=C(N/N=C\c1ccco1)c1cncc(Br)c1`, for which the IC50 was 38.1 µM (inactive).

For `COc1cc2ccccc2cc1C(=O)Nc1sc2c(c1C(N)=O)CCN(C(C)C)C2`, the IC50 is 19 µM (inactive).

For the compound `Cc1ccc(-c2nnc(COC(=O)c3cccs3)o2)cc1`, the IC50 is 13.8 µM (inactive).

As for `CC(C)(C)c1ccc(OCCCC(=O)NC2=NCCS2)cc1`, the IC50 was 9.76 µM.

As to `Cc1oc(=O)c(NC(=O)c2ccccc2)cc1C(=O)c1ccccc1`, the IC50 is 5.33 µM.

Turning to `CC/C(=C\C=C\[C@@H]1C=C[C@@H]2CCC[C@H]2[C@@H]1C(=O)c1ccc[nH]1)[C@@H]1O[C@@H]([C@@H](C)C(=O)O)CC[C@@H]1C`, the IC50 is 3.28 µM.

Turning to `CC(C)CCC1=NN(C(=O)c2ccco2)C(O)(C(F)(F)F)C1` (stereo unspecified), the IC50 is 0.94 µM.

As to `COC(=O)c1ccc(C(=O)NC2CC(C)(C)Cc3c2cnn3-c2ccc(F)cc2)nc1` (stereo unspecified), the IC50 is 15.7 µM (inactive).

Take `c1ccc(-c2nc(NCCCn3ccnc3)c3ccccc3n2)cc1`: the IC50 was 17.8 µM (inactive).

For `Cc1cc(C)n(-c2nc(SCCN(C)C)c3c4c(sc3n2)CCCC4)n1`, the half-maximal inhibitory concentration (IC50) was 6.69 µM.

With `O=C(c1cc2ccccc2o1)c1nc2c(n1O)CCCCC2`, the IC50 was 12.8 µM (inactive).

Turning to `Cc1ccc(S(=O)(=O)CCC(=O)Nc2nc(-c3ccncc3)cs2)cc1`, the IC50 was 14.6 µM (inactive).

As for `CCOC(=O)c1sc2nc(CSc3ccccc3)nc(NCCN(C)C)c2c1C`, the IC50 was 14.9 µM (inactive).

With `NC1=NC[C@H](Cc2ccccc2)N1CCCCC1CCCCC1`, the concentration for half-maximal inhibition (IC50) is 7.48 µM.

For the compound `CN1/C(=C\C(=O)COC(=O)C2COc3ccccc3O2)C(C)(C)c2ccccc21` (stereo unspecified), the IC50 was 5.79 µM.

Take `CC(Cc1ccccc1Sc1ccccc1)N(C)C` (stereo unspecified): the IC50 is 26 µM (inactive).

Turning to `CN(CCOCCOc1ccc(F)cc1)Cc1ccccc1`, the IC50 is 10.9 µM (inactive).

Consider `O=C(COC(=O)c1ccccc1Br)Nc1ccccc1F`, for which the IC50 was 14.7 µM (inactive).

On to `O=C(CN1CCC(NC(=O)c2cccc(F)c2)CC1)Nc1ccc(Br)cc1`, for which the IC50 is 31.9 µM (inactive).

With `CCc1ccc(C(C)NC(=O)C2CCCO2)cc1` (stereo unspecified), the half-inhibitory concentration (IC50) is 8.61 µM.

Regarding `Cc1cc(C)cc(NC(=O)CCc2ccc(C)o2)c1`, the concentration for half-maximal inhibition (IC50) is 1.42 µM.

Turning to `Cc1ccc(OCC(=O)N/N=C/c2ccc([N+](=O)[O-])o2)cc1`, the IC50 was 2.89 µM.

For the compound `CC1(c2nnc(-c3ccccc3)o2)CC(c2ccc(Cl)cc2)=NO1` (stereo unspecified), the IC50 is 1.52 µM.

On to `Cc1noc2ncnc(Sc3ccccc3Cl)c12`, for which the IC50 is 16.4 µM (inactive).

Consider `COC(=O)CN(C#N)c1nc(N(C)C)nc(N(C)C)n1`, for which the IC50 was 16.5 µM (inactive).

For the compound `O=C(Nc1nc2ccccc2n1CCOc1ccc(Cl)cc1)c1ccco1`, the IC50 is 14.4 µM (inactive).

With `COC(=O)COc1ccc2c(-c3cccc([N+](=O)[O-])c3)cc(=O)oc2c1`, the concentration for half-maximal inhibition (IC50) is 1.84 µM.

Consider `CC(C)c1ccc(/C=N/NC(=O)c2ccccn2)cc1`, for which the IC50 was 12.9 µM (inactive).

Take `C/C(=N\NC(=O)c1cccc(Cl)c1)C1C(=O)c2ccccc2C1=O`: the IC50 is 0.38 µM.

As to `CNc1nc(-c2ccccn2)nnc1-c1ccccc1`, the IC50 is 16.2 µM (inactive).

Turning to `Cc1ccccc1OCCNc1cc(N2CC(C)NC(C)C2)ccc1[N+](=O)[O-]` (stereo unspecified), the IC50 is 10.8 µM (inactive).

Consider `O=c1c2ccc(Cl)cc2nc(-c2cccc(C(F)(F)F)c2)n1O`, for which the concentration for half-maximal inhibition (IC50) was 0.33 µM.

Consider `Cc1cccc(NC(=O)c2n[nH]c([N+](=O)[O-])c2Br)c1C`, for which the IC50 is 7.96 µM.

Consider `Cc1ccc(C(=O)C=CNNC(=O)c2ccccc2)cc1`, for which the IC50 is 2.15 µM.

Turning to `C#CCSc1nnc(-c2ccc(O)cc2)o1`, the half-maximal inhibitory concentration (IC50) is 7.34 µM.

For the compound `COc1ccc(C(=O)Nc2nnc(-c3ccccc3)o2)cc1OC`, the IC50 is 10.4 µM (inactive).

Take `O=C(Nc1cccc(S(=O)(=O)N2CCCCC2)c1)c1ccc([N+](=O)[O-])o1`: the IC50 was 4.07 µM.

As to `Cc1nnc(N/N=C/c2cccc(OCc3ccc(Cl)c(Cl)c3)c2)n1N`, the 50% inhibitory concentration (IC50) is 3.37 µM.

Turning to `CCCCc1ccc(NS(=O)(=O)c2c(C)n(C)c(=O)n(C)c2=O)cc1`, the IC50 was 27.1 µM (inactive).

As for `CC(C)(C)C(=O)/C=C/Nc1ccccc1O`, the 50% inhibitory concentration (IC50) is 4.66 µM.

In the case of `Cc1cccc(NC(=O)c2ccc([N+](=O)[O-])s2)n1`, the IC50 is 0.52 µM.

With `CCOC(=O)c1sc(NC(=O)CCN2CCOCC2)c(C(=O)OCC)c1C`, the IC50 is 1.73 µM.

Regarding `Nc1nonc1C(=O)NCCN=Cc1cc(Cc2ccccc2)cc(Br)c1O`, the concentration for half-maximal inhibition (IC50) was 5.63 µM.

In the case of `CCOC(=O)c1nn(-c2ccccc2)c2nc(Nc3ccccc3)cc(=O)n12`, the concentration for half-maximal inhibition (IC50) is 4.74 µM.

As to `CC(C)(C)c1cc(C(=O)N/N=C/c2ccc([N+](=O)[O-])s2)n[nH]1`, the IC50 is 5.5 µM.

As usually defined, the IC50 is the concentration needed to halve the response being measured.

The values are drawn from PubChem BioAssay AID488890 (Southern Research Specialized Biocontainment Screening …, 2010).
